How the values were obtained:
WSU-NHL = experiment: Combination study, ATPLite 72 h, dose matrix (Synergy Score, CI50)
DOHH2 = experiment: Compound 1 with dexamethasone, CellTiter-Glo viability 72 h, combination index; assay type: cell-based; details: DOHH2
Method: The effects of Compound 1 with dexamethasone were examined in a panel of cell lines. Cells were cultured and assayed as follows. Compound 1 was serially diluted with cell culture medium and various DMSO concentrations. The top concentration of Compound 1 exposed to cells was 3 uM for cell lines other than WSU-NHL and DOHH2. For WSU-NHL and DOHH2 cell lines, the top concentration of Compound 1 exposed to the cells was 0.3 uM. Dexamethasone was serially diluted in culture media and phosphate buffered saline (PBS). The top concentration of dexamethasone used on cells was 3 uM. Cells were at least 73% viable and were counted and diluted for plating at a density of about 92,000 cell/mL, 130 uL cells per well in 96 well plates for SUDHL6, Karpas 422, SUDHL4, WSU-NHL, RL, and DOHH2 cell lines. The SUDHL10 cell line was plated at a density of about 46,000 cells/mL, 130 uL cells per well in 96 well plates.
Various concentrations of Compound 1 and various combinations of dexamethasone were added to various wells of cells. Single agents (Compound 1 or dexamethasone alone) were also added to some wells of cells. Cells were incubated with compounds for 72 hours. To assay for effects of the compounds on cell viability, a CellTiter-Glo® luminescent cell viability assay (commercially available) was used. To each plate of cells, 100 uL CellTiter-Glo reagent was added, incubated, and luminescence quantified using a […].
The results for cell line DOHH2 are depicted in FIG. 11 and Table 11. […] Table 11 depicts combination index (CI) values for different combinations of dexamethasone/Compound 1 concentrations.

C[C@H](Nc1ncnc2[nH]cnc12)c1cc2cccc(Cl)c2c(=O)n1-c1ccccc1 [Compound 1, (S)-3-(1-((9H-purin-6-yl)amino)ethyl)-8-chloro-2-phenylisoquinolin-1(2H)-one]
CI50 growth inhibition (WSU-NHL; combination with Dexamethasone): S (S=0.01 to <0.5) | CI50 inhibition (WSU-NHL; combination with Dexamethasone): S (S=0.01 to <0.5) | Synergy Score growth inhibition (WSU-NHL; combination with Dexamethasone): A3 (A3=>3) | Synergy Score inhibition (WSU-NHL; combination with Dexamethasone): A3 (A3=>3) | CI50 growth inhibition (WSU-NHL; combination with LEE011): S (S=0.01 to <0.5) | CI50 inhibition (WSU-NHL; combination with LEE011): S (S=0.01 to <0.5) | Synergy Score growth inhibition (WSU-NHL; combination with LEE011): A2 (A2=1 to <3) | Synergy Score inhibition (WSU-NHL; combination with LEE011): A2 (A2=1 to <3) | CI50 growth inhibition (WSU-NHL; combination with PCI-32765): S (S=0.01 to <0.5) | CI50 inhibition (WSU-NHL; combination with PCI-32765): S (S=0.01 to <0.5) | Synergy Score growth inhibition (WSU-NHL; combination with PCI-32765): A3 (A3=>3) | Synergy Score inhibition (WSU-NHL; combination with PCI-32765): A3 (A3=>3) | CI50 growth inhibition (WSU-NHL; combination with PD-0332991): S (S=0.01 to <0.5) | CI50 inhibition (WSU-NHL; combination with PD-0332991): S (S=0.01 to <0.5) | combination index (CI) (DOHH2; Compound 1 0.137174 nM + Dexamethasone 1.371742 nM): E (E = >1) | combination index (CI) (DOHH2; Compound 1 0.137174 nM + Dexamethasone 4.115226 nM): E (E = >1) | combination index (CI) (DOHH2; Compound 1 0.137174 nM + Dexamethasone 12.34568 nM): E (E = >1) | combination index (CI) (DOHH2; Compound 1 0.137174 nM + Dexamethasone 37.03704 nM): E (E = >1) | combination index (CI) (DOHH2; Compound 1 0.137174 nM + Dexamethasone 111.1111 nM): C (C = 0.5 to <0.7) | combination index (CI) (DOHH2; Compound 1 0.137174 nM + Dexamethasone 333.3333 nM): A (A = 0.0001 to <0.3) | combination index (CI) (DOHH2; Compound 1 0.137174 nM + Dexamethasone 1000 nM): A (A = 0.0001 to <0.3) | combination index (CI) (DOHH2; Compound 1 0.137174 nM + Dexamethasone 3000 nM): A (A = 0.0001 to <0.3) | combination index (CI) (DOHH2; Compound 1 0.411523 nM + Dexamethasone 1.371742 nM): E (E = >1) | combination index (CI) (DOHH2; Compound 1 0.411523 nM + Dexamethasone 4.115226 nM): E (E = >1) | combination index (CI) (DOHH2; Compound 1 0.411523 nM + Dexamethasone 12.34568 nM): E (E = >1) | combination index (CI) (DOHH2; Compound 1 0.411523 nM + Dexamethasone 37.03704 nM): E (E = >1) | combination index (CI) (DOHH2; Compound 1 0.411523 nM + Dexamethasone 111.1111 nM): C (C = 0.5 to <0.7) | combination index (CI) (DOHH2; Compound 1 0.411523 nM + Dexamethasone 333.3333 nM): B (B = 0.3 to <0.5) | combination index (CI) (DOHH2; Compound 1 0.411523 nM + Dexamethasone 1000 nM): A (A = 0.0001 to <0.3) | combination index (CI) (DOHH2; Compound 1 0.411523 nM + Dexamethasone 3000 nM): A (A = 0.0001 to <0.3) | combination index (CI) (DOHH2; Compound 1 1.234568 nM + Dexamethasone 1.371742 nM): E (E = >1) | combination index (CI) (DOHH2; Compound 1 1.234568 nM + Dexamethasone 4.115226 nM): E (E = >1) | combination index (CI) (DOHH2; Compound 1 1.234568 nM + Dexamethasone 12.34568 nM): E (E = >1) | combination index (CI) (DOHH2; Compound 1 1.234568 nM + Dexamethasone 37.03704 nM): E (E = >1) | combination index (CI) (DOHH2; Compound 1 1.234568 nM + Dexamethasone 111.1111 nM): B (B = 0.3 to <0.5) | combination index (CI) (DOHH2; Compound 1 1.234568 nM + Dexamethasone 333.3333 nM): A (A = 0.0001 to <0.3) | combination index (CI) (DOHH2; Compound 1 1.234568 nM + Dexamethasone 1000 nM): A (A = 0.0001 to <0.3) | combination index (CI) (DOHH2; Compound 1 1.234568 nM + Dexamethasone 3000 nM): A (A = 0.0001 to <0.3) | combination index (CI) (DOHH2; Compound 1 3.703704 nM + Dexamethasone 1.371742 nM): B (B = 0.3 to <0.5) | combination index (CI) (DOHH2; Compound 1 3.703704 nM + Dexamethasone 4.115226 nM): E (E = >1) | combination index (CI) (DOHH2; Compound 1 3.703704 nM + Dexamethasone 12.34568 nM): E (E = >1) | combination index (CI) (DOHH2; Compound 1 3.703704 nM + Dexamethasone 37.03704 nM): D (D = 0.7 to <1) | combination index (CI) (DOHH2; Compound 1 3.703704 nM + Dexamethasone 111.1111 nM): A (A = 0.0001 to <0.3) | combination index (CI) (DOHH2; Compound 1 3.703704 nM + Dexamethasone 333.3333 nM): A (A = 0.0001 to <0.3) | combination index (CI) (DOHH2; Compound 1 3.703704 nM + Dexamethasone 1000 nM): A (A = 0.0001 to <0.3) | combination index (CI) (DOHH2; Compound 1 3.703704 nM + Dexamethasone 3000 nM): A (A = 0.0001 to <0.3) | combination index (CI) (DOHH2; Compound 1 11.11111 nM + Dexamethasone 1.371742 nM): B (B = 0.3 to <0.5) | combination index (CI) (DOHH2; Compound 1 11.11111 nM + Dexamethasone 4.115226 nM): E (E = >1) | combination index (CI) (DOHH2; Compound 1 11.11111 nM + Dexamethasone 12.34568 nM): E (E = >1) | combination index (CI) (DOHH2; Compound 1 11.11111 nM + Dexamethasone 37.03704 nM): C (C = 0.5 to <0.7) | combination index (CI) (DOHH2; Compound 1 11.11111 nM + Dexamethasone 111.1111 nM): A (A = 0.0001 to <0.3)
